Experiments:
[1] = xn = mol fraction of the nth substance listed; conditions: 313.15 K, 101 kPa, Liquid; for speed of sound: Sing-around technique in a fixed-path interferometer; for mass density: Vibrating tube method
[2] = refractive index (Na D-line) (dimensionless); xn = mol fraction of the nth substance listed; conditions: 313.15 K, 101 kPa, Liquid, Standard Abbe refractometry

c1ccccc1 [benzene] + CCCCCC
Conditions | mass density, [1] [kg/m3] | refractive index, [2] | speed of sound, [1] [m/s]
x2 = 0 | 857.4 | 1.48752 | 1230
x2 = 0.0378 | 845.3 | 1.48075 | 1214.8
x2 = 0.1009 | 825.8 | 1.46941 | 1191.1
x2 = 0.1986 | 797.9 | 1.45313 | 1158.5
x2 = 0.2979 | 772.2 | 1.43818 | 1129.8
x2 = 0.402 | 747.7 | 1.42416 | 1104.3
x2 = 0.6024 | 706.3 | 1.40043 | 1063.9
x2 = 0.7014 | 688.2 | 1.39011 | 1047.7
x2 = 0.801 | 671.4 | 1.38019 | 1033.2
x2 = 0.9083 | 654.9 | 1.37148 | 1020.2
x2 = 0.9464 | 649.2 | 1.36837 | 1015.9

c1ccccc1 [benzene] + CCCCCCC
Conditions | mass density, [1] [kg/m3] | refractive index, [2] | speed of sound, [1] [m/s]
x2 = 0 | 857.4 | 1.48752 | 1230
x2 = 0.0511 | 840.8 | 1.47784 | 1210.9
x2 = 0.1025 | 825.2 | 1.46808 | 1193.3
x2 = 0.1998 | 798.6 | 1.45273 | 1165.5
x2 = 0.2987 | 775 | 1.43808 | 1142.8
x2 = 0.3972 | 754.3 | 1.42586 | 1124.4
x2 = 0.5013 | 734.9 | 1.4148 | 1108.9
x2 = 0.5998 | 718.5 | 1.40552 | 1096.8
x2 = 0.698 | 703.7 | 1.39777 | 1086.4
x2 = 0.8043 | 689.4 | 1.38985 | 1077.8
x2 = 0.9013 | 677.7 | 1.38322 | 1071.6
x2 = 0.9518 | 671.9 | 1.38025 | 1068.8

c1ccccc1 [benzene] + CCCCCCCC
x2 = 0
Conditions | mass density [kg/m3] | refractive index | speed of sound [m/s]
[1] | 857.4 | – | 1230
[2] | – | 1.48752 | –

c1ccccc1 [benzene] + CCCCCCCCC
x2 = 0
Conditions | mass density [kg/m3] | refractive index | speed of sound [m/s]
[1] | 857.4 | – | 1230
[2] | – | 1.48752 | –

CCc1ccccc1 [ethylbenzene] + CCCCCC
Conditions | mass density, [1] [kg/m3] | refractive index, [2] | speed of sound, [1] [m/s]
x2 = 0 | 849.2 | 1.48426 | 1256.9
x2 = 0.0465 | 839.4 | 1.47929 | 1243.8
x2 = 0.0771 | 832.8 | 1.47548 | 1235
x2 = 0.201 | 806.5 | 1.46016 | 1200.8
x2 = 0.3015 | 785.2 | 1.44756 | 1173.9
x2 = 0.399 | 764.7 | 1.43582 | 1148.5
x2 = 0.5092 | 741.7 | 1.42251 | 1121.1
x2 = 0.601 | 722.6 | 1.41135 | 1098.9
x2 = 0.7012 | 702 | 1.39924 | 1075.7
x2 = 0.7999 | 681.9 | 1.38766 | 1054.1
x2 = 0.8993 | 661.7 | 1.3759 | 1031.8
x2 = 0.9534 | 650.8 | 1.36962 | 1020.3

CCc1ccccc1 [ethylbenzene] + CCCCCCC
Conditions | mass density, [1] [kg/m3] | refractive index, [2] | speed of sound, [1] [m/s]
x2 = 0 | 849.2 | 1.48426 | 1256.9
x2 = 0.0494 | 838.5 | 1.47846 | 1243.9
x2 = 0.1039 | 826.9 | 1.47131 | 1229.8
x2 = 0.2025 | 806.7 | 1.4594 | 1205.9
x2 = 0.3022 | 786.8 | 1.44788 | 1183.7
x2 = 0.4038 | 767.2 | 1.43628 | 1162.6
x2 = 0.5006 | 749.3 | 1.42574 | 1144.6
x2 = 0.6003 | 731.6 | 1.41536 | 1126.9
x2 = 0.7014 | 714.3 | 1.40513 | 1109.8
x2 = 0.8048 | 697.3 | 1.39516 | 1094.8
x2 = 0.9028 | 681.7 | 1.38607 | 1079.9

CCc1ccccc1 [ethylbenzene] + CCCCCCCC
Conditions | mass density, [1] [kg/m3] | refractive index, [2] | speed of sound, [1] [m/s]
x2 = 0 | 849.2 | 1.48426 | 1256.9
x2 = 0.0536 | 837.6 | 1.47786 | 1244.1
x2 = 0.1028 | 827.4 | 1.47159 | 1232.9
x2 = 0.2037 | 807.4 | 1.45954 | 1212.1
x2 = 0.3032 | 788.7 | 1.4483 | 1193.8
x2 = 0.4015 | 771.4 | 1.43795 | 1177.7
x2 = 0.5013 | 755 | 1.42817 | 1163.3
x2 = 0.6039 | 739.2 | 1.41883 | 1150.1
x2 = 0.701 | 725.1 | 1.41043 | 1138.8
x2 = 0.7996 | 711.6 | 1.40254 | 1128.3
x2 = 0.9012 | 698.6 | 1.39489 | 1119.3
x2 = 0.9515 | 692.3 | 1.39112 | 1115

CCc1ccccc1 [ethylbenzene] + CCCCCCCCC
x2 = 0
Conditions | mass density [kg/m3] | refractive index | speed of sound [m/s]
[1] | 849.2 | – | 1256.9
[2] | – | 1.48426 | –

CCCCCCC [heptane] + CCc1ccccc1
x1 = 1
Conditions | mass density [kg/m3] | refractive index | speed of sound [m/s]
[1] | 666.6 | – | 1066.5
[2] | – | 1.37737 | –

CCCCCCC [heptane] + Cc1ccccc1
x1 = 1
Conditions | mass density [kg/m3] | refractive index | speed of sound [m/s]
[1] | 666.6 | – | 1066.5
[2] | – | 1.37737 | –

CCCCCCC [heptane] + c1ccccc1
x1 = 1
Conditions | mass density [kg/m3] | refractive index | speed of sound [m/s]
[1] | 666.6 | – | 1066.5
[2] | – | 1.37737 | –

CCCCCC [hexane] + CCc1ccccc1
x1 = 1
Conditions | mass density [kg/m3] | refractive index | speed of sound [m/s]
[1] | 641.4 | – | 1010.3
[2] | – | 1.36411 | –
